Laboratory results: US5783201A, “Method for treating non-ocular epithelial disorders via increasing heme oxygenase levels and/or decreasing levels of arachidonic acid derivatives” (Hemogen, Inc., priority 1997, dated 1998)

Test system: heme oxygenase
Test: microsomal heme oxygenase activity in CCD-860SK skin fibroblast cells
Type: cell-based, human
Conditions: 100 μM; CCD-860 skin fibroblast cells, collected after two hours; mean ± SD; control 294 ± 18
Method: Cell line CCD-860SK is a human skin fibroblast cell line which is publicly available from the American Type Culture Collection. Cell cultures of this line were propagated in Iscove's modified Dulbecco's medium supplemented with 10% fetal bovine […]. Following propagation, they were grown in 175 cm^2 Falcon tissue culture flasks, using Iscove's modified Dulbecco's medium, supplemented with 10% (v/v) heat inactivated fetal bovine serum, 50 U penicillin/ml, 50 ug streptomycin/ml, and 2 mM glutamine. The cells were then seeded into culture flasks at a concentration of 1×10^5 cells/ml, and incubated at 37° C. in a humidified 5% CO2 /95% air chamber. After three days, old media were removed, and replaced with fresh media. […]
To measure total enzyme activity, microsomes were prepared as described by Tenhunen et al., J. Biol. Chem. 244: 6388-6394 (1969), incorporated by reference herein. The activity of microsomal heme oxygenase was then determined, using 0.5-1 mg protein in an incubation medium as described by Tenhunen et al., supra. Total protein was then determined using the classic method of Lowry et al., J. Biol. Chem. 193: […] (1951), using bovine serum albumin as standard.

In the case of [Cl][Sn][Cl] [SnCl2], the Heme oxygenase is reported as 802 ± 49 pmol bilirubin/mg/hr.
